Results as given in ChEMBL document CHEMBL2157893, “A potent and orally active antagonist (SM-406/AT-406) of multiple inhibitor of apoptosis proteins (IAPs) in clinical development for cancer treatment” (J Med Chem, 2011).
The source made the active and inactive calls. The calls are words filed in the database; no cut-off is given here.

Assays:
MDA-MB-231 [1] = assay: Antitumor activity against human MDA-MB-231 cells xenografted in SCID mouse assessed inhibition of tumor growth at 10 mg/kg, po administered daily for 5 days/week for 2 weeks; assay type: functional, organism-based; design: dose 10 mg/kg
MDA-MB-231 [2] = assay: Antitumor activity against human MDA-MB-231 cells xenografted in SCID mouse assessed inhibition of tumor growth at 30 mg/kg, po administered daily for 5 days/week for 2 weeks; assay type: functional, organism-based; design: dose 30 mg/kg
MDA-MB-231 [3] = assay: Antitumor activity against human MDA-MB-231 cells xenografted in SCID mouse assessed inhibition of tumor growth at 100 mg/kg, po administered daily for 5 days/week for 2 weeks; assay type: functional, organism-based; design: dose 100 mg/kg
MDA-MB-231 [4] = assay: Induction of cell death in human MDA-MB-231 cells incubated for 24 hrs by trypan blue exclusion assay; assay type: functional, cell-based
MDA-MB-231 [5] = assay: Induction of cell death in human MDA-MB-231 cells at 1 uM by trypan blue exclusion assay; assay type: functional, cell-based; conditions: TDE = time-dependent effect
MDA-MB-231 [6] = assay: Induction of apoptosis in human MDA-MB-231 cells assessed as activation of caspase-3 activity at 1.5 uM after 12 hrs by Western blot analysis; assay type: functional, cell-based
MDA-MB-231 [7] = assay: Induction of apoptosis in human MDA-MB-231 cells assessed as activation of PARP cleavage at 1.5 uM after 12 hrs by Western blot analysis; assay type: functional, cell-based
Mus musculus [8] = assay: Induction of degradation of cIAP1 in human MDA-MB-231 cells xenografted in SCID mouse at 100 mg/kg, po administered as single dose measured after 2 hrs by Western blot analysis; assay type: functional, organism-based; design: dose 100 mg/kg
Mus musculus [9] = assay: Induction of degradation of cIAP1 in human MDA-MB-231 cells xenografted in SCID mouse at 100 mg/kg, po administered as single dose measured after 16 hrs by Western blot analysis; assay type: functional, organism-based; design: dose 100 mg/kg
Mus musculus [10] = assay: Induction of procaspase-8 processing in human MDA-MB-231 cells xenografted in SCID mouse at 100 mg/kg, po administered as single dose measured after 2 hrs by Western blot analysis; assay type: functional, organism-based; design: dose 100 mg/kg
Mus musculus [11] = assay: Induction of procaspase-8 processing in human MDA-MB-231 cells xenografted in SCID mouse at 100 mg/kg, po administered as single dose measured after 6 hrs by Western blot analysis; assay type: functional, organism-based; design: dose 100 mg/kg
Mus musculus [12] = assay: Induction of PARP cleavage in human MDA-MB-231 cells xenografted in SCID mouse at 100 mg/kg, po administered as single dose measured after 2 hrs by Western blot analysis; assay type: functional, organism-based; design: dose 100 mg/kg
Mus musculus [13] = assay: Induction of PARP cleavage in human MDA-MB-231 cells xenografted in SCID mouse at 100 mg/kg, po administered as single dose measured after 6 hrs by Western blot analysis; assay type: functional, organism-based; design: dose 100 mg/kg
Mus musculus [14] = assay: Induction of PARP cleavage in human MDA-MB-231 cells xenografted in SCID mouse at 100 mg/kg, po administered as single dose measured after 16 hrs by Western blot analysis; assay type: functional, organism-based; design: dose 100 mg/kg
Mus musculus [15] = assay: Induction of degradation of cIAP1 in human MDA-MB-231 cells xenografted in SCID mouse at 7.5 mg/kg, iv administered as single dose measured after 24 hrs by Western blot analysis; assay type: functional, organism-based; design: dose 7.5 mg/kg
Mus musculus [16] = assay: Induction of PARP cleavage in human MDA-MB-231 cells xenografted in SCID mouse at 7.5 mg/kg, iv administered as single dose measured after 24 hrs by Western blot analysis; assay type: functional, organism-based; design: dose 7.5 mg/kg
Mus musculus [17] = assay: Induction of procaspase-8 processing in human MDA-MB-231 cells xenografted in SCID mouse at 7.5 mg/kg, iv administered as single dose measured after 24 hrs by Western blot analysis; assay type: functional, organism-based; design: dose 7.5 mg/kg
Mus musculus [18] = assay: Toxicity in human MDA-MB-231 cells xenografted in SCID mouse assessed weight loss at 7.5 mg/kg, iv administered once/week for 2 weeks; conditions: in vivo, 336 h
MDA-MB-231 [19] = assay: Antitumor activity against human MDA-MB-231 cells xenografted in SCID mouse assessed inhibition of tumor growth at 7.5 mg/kg, iv administered once/week for 2 weeks
Plasma [20] = assay: AUC (0 to t) in human MDA-MB-231 cells xenografted SCID mouse plasma at 10 mg/kg, iv administered as single dose; assay type: ADME, organism-based; design: dose 10 mg/kg, route intravenous; conditions: in vivo
Plasma [21] = assay: Half life in human MDA-MB-231 cells xenografted SCID mouse plasma at 10 mg/kg, iv administered as single dose; assay type: ADME, organism-based; design: dose 10 mg/kg, route intravenous; conditions: in vivo
Plasma [22] = assay: AUC (0 to t) in human MDA-MB-231 cells xenografted SCID mouse plasma at 10 mg/kg, po administered as single dose; assay type: ADME, organism-based; design: dose 10 mg/kg, route oral; conditions: in vivo
[23] = Tmax in human MDA-MB-231 cells xenografted SCID mouse plasma at 10 mg/kg, po administered as single dose; assay type: ADME, organism-based; design: dose 10 mg/kg, route oral
Plasma [24] = assay: Half life in human MDA-MB-231 cells xenografted SCID mouse plasma at 10 mg/kg, po administered as single dose; assay type: ADME, organism-based; design: dose 10 mg/kg, route oral; conditions: in vivo
Plasma [25] = assay: Oral bioavailability in human MDA-MB-231 cells xenografted SCID mouse plasma at 10 mg/kg administered as single dose; assay type: ADME, organism-based; conditions: in vivo
Plasma [26] = assay: AUC (0 to t) in human MDA-MB-231 cells xenografted SCID mouse plasma at 30 mg/kg, po administered as single dose; assay type: ADME, organism-based; design: dose 30 mg/kg, route oral; conditions: in vivo
[27] = Tmax in human MDA-MB-231 cells xenografted SCID mouse plasma at 30 mg/kg, po administered as single dose; assay type: ADME, organism-based; design: dose 30 mg/kg, route oral
Plasma [28] = assay: Half life in human MDA-MB-231 cells xenografted SCID mouse plasma at 30 mg/kg, po administered as single dose; assay type: ADME, organism-based; design: dose 30 mg/kg, route oral; conditions: in vivo
Plasma [29] = assay: Oral bioavailability in human MDA-MB-231 cells xenografted SCID mouse plasma at 30 mg/kg administered as single dose; assay type: ADME, organism-based; conditions: in vivo
Plasma [30] = assay: AUC (0 to t) in human MDA-MB-231 cells xenografted SCID mouse plasma at 100 mg/kg, po administered as single dose; assay type: ADME, organism-based; design: dose 100 mg/kg, route oral; conditions: in vivo
Plasma [31] = assay: Half life in human MDA-MB-231 cells xenografted SCID mouse plasma at 100 mg/kg, po administered as single dose; assay type: ADME, organism-based; design: dose 100 mg/kg, route oral; conditions: in vivo
Plasma [32] = assay: Oral bioavailability in human MDA-MB-231 cells xenografted SCID mouse plasma at 100 mg/kg administered as single dose; assay type: ADME, organism-based; conditions: in vivo
[33] = AUC (0 to t) in human MDA-MB-231 cells xenografted SCID mouse tumor at 10 mg/kg, iv administered as single dose; assay type: ADME, organism-based, Neoplasm; design: dose 10 mg/kg, route intravenous
[34] = Tmax in human MDA-MB-231 cells xenografted SCID mouse tumor at 10 mg/kg, iv administered as single dose; assay type: ADME, organism-based, Neoplasm; design: dose 10 mg/kg, route intravenous
[35] = AUC (0 to t) in human MDA-MB-231 cells xenografted SCID mouse tumor at 10 mg/kg, po administered as single dose; assay type: ADME, organism-based, Neoplasm; design: dose 10 mg/kg, route oral
[36] = Tmax in human MDA-MB-231 cells xenografted SCID mouse tumor at 10 mg/kg, po administered as single dose; assay type: ADME, organism-based, Neoplasm; design: dose 10 mg/kg, route oral
[37] = AUC (0 to t) in human MDA-MB-231 cells xenografted SCID mouse tumor at 30 mg/kg, po administered as single dose; assay type: ADME, organism-based, Neoplasm; design: dose 30 mg/kg, route oral
[38] = Tmax in human MDA-MB-231 cells xenografted SCID mouse tumor at 30 mg/kg, po administered as single dose; assay type: ADME, organism-based, Neoplasm; design: dose 30 mg/kg, route oral
[39] = AUC (0 to t) in human MDA-MB-231 cells xenografted SCID mouse tumor at 100 mg/kg, po administered as single dose; assay type: ADME, organism-based, Neoplasm; design: dose 100 mg/kg, route oral
[40] = Tmax in human MDA-MB-231 cells xenografted SCID mouse tumor at 100 mg/kg, po administered as single dose; assay type: ADME, organism-based, Neoplasm; design: dose 100 mg/kg, route oral
[41] = Inhibition of Cytochrome P450; assay type: ADME
Canis familiaris = species: Canis familiaris; assay: Toxicity in dog assessed as drug tolerability; assay type: organism-based, Canis lupus familiaris; conditions: in vivo
[42] = Aqueous solubility of the compound; assay type: physicochemical; conditions: buffer
[43] = target: E3 ubiquitin-protein ligase XIAP (Homo sapiens, UniProt P98170); assay: Competitive inhibition of human XIAP BIR3 domain expressed in Escherichia coli BL21(DE3) after 2 to 3 hrs by fluorescence polarization assay
[44] = target: Baculoviral IAP repeat-containing protein 3 (Homo sapiens, UniProt Q13489); assay: Competitive inhibition of human cIAP2 BIR3 domain expressed in Escherichia coli BL21(DE3) after 2 to 3 hrs by fluorescence polarization assay
[45] = Toxicity in human MCF12F cells assessed as induction of cell death at 10 uM after 48 hrs by trypan blue exclusion assay; assay type: cell-based
[46] = Toxicity in human prostate epithelial cells assessed as induction of cell death at 10 uM after 48 hrs by trypan blue exclusion assay; assay type: cell-based
MDA-MB-231 [47] = assay: cells; conditions: Homo sapiens, MDA-MB-231, 96 h
SK-OV-3 = assay: cells; conditions: Homo sapiens, SK-OV-3, 96 h
in vivo [48] = conditions: SCID, mouse, tumor, iv, 10 mg/kg
in vivo [49] = conditions: SCID, mouse, tumor, po, 10 mg/kg
in vivo [50] = conditions: SCID, mouse, tumor, po, 30 mg/kg
in vivo [51] = conditions: SCID, mouse, tumor, po, 100 mg/kg
Mus musculus [52] = assay: Toxicity in human MDA-MB-231 cells xenografted in SCID mouse at 200 mg/kg, po administered daily for 5 days/week for 2 to 3 weeks; conditions: in vivo

Structure (SMILES): CN[C@@H](C)C(=O)N[C@H]1CN(C(=O)CC(C)C)CC[C@H]2CC[C@@H](C(=O)NC(c3ccccc3)c3ccccc3)N2C1=O
- TGI (MDA-MB-231 [1]): inactive
- TGI (MDA-MB-231 [2]): Active
- TGI (MDA-MB-231 [3]): Active
- Activity (MDA-MB-231 [4]): Dose-dependent effect
- Activity (MDA-MB-231 [5]): tde
- Activity (MDA-MB-231 [6]): Active
- Activity (MDA-MB-231 [7]): Active
- Activity (Mus musculus [8]): Active
- Activity (Mus musculus [9]): Active
- Activity (Mus musculus [10]): Active
- Activity (Mus musculus [11]): Active
- Activity (Mus musculus [12]): Active
- Activity (Mus musculus [13]): Active
- Activity (Mus musculus [14]): Active

Structure (SMILES): CC(=O)O[C@@]12CO[C@@H]1C[C@H](O)[C@@]1(C)C(=O)[C@H](O)C3=C(C)[C@@H](OC(=O)[C@H](O)[C@@H](NC(=O)OC(C)(C)C)c4ccccc4)C[C@@](O)([C@@H](OC(=O)c4ccccc4)[C@H]21)C3(C)C.O.O.O [DOCETAXEL]
- Activity (Mus musculus [15]): inactive
- Activity (Mus musculus [16]): inactive
- Activity (Mus musculus [17]): Active
- Activity (Mus musculus [18]): Toxic
- TGI (MDA-MB-231 [19]): Active

Structure (SMILES): CN[C@@H](C)C(=O)N[C@H]1CN(C(=O)CC(C)C)CC[C@H]2CC[C@@H](C(=O)NC(c3ccccc3)c3ccccc3)N2C1=O [XEVINAPANT]
- AUCt (Plasma [20]): 3800 ng·h/mL
- t1/2 (Plasma [21]): 3 h
- AUCt (Plasma [22]): 1200 ng·h/mL
- Tmax [23]: 1 h
- t1/2 (Plasma [24]): 2.4 h
- F (Plasma [25]): 31%
- AUCt (Plasma [26]): 4300 ng·h/mL
- Tmax [27]: 2 h
- t1/2 (Plasma [28]): 2.3 h
- F (Plasma [29]): 38%
- AUCt (Plasma [30]): 17400 ng·h/mL
- t1/2 (Plasma [31]): 5.4 h
- F (Plasma [32]): 46%
- AUC(0-t) [33]: 8300 ng·h/mL
- Tmax [34]: 0.25 h
- AUC(0-t) [35]: 1100 ng·h/mL
- Tmax [36]: 1 h
- AUC(0-t) [37]: 9600 ng·h/mL
- Tmax [38]: 2 h
- AUC(0-t) [39]: 57300 ng·h/mL
- Tmax [40]: 2 h
- inhibition (INH) [41]: Not Active
- Activity (Canis familiaris): Non-toxic
- solubility [42]: > 50 mg/mL
- IC50 [43]: 225 nM
- Ki [43]: 66.4 nM
- IC50 [44]: 22.1 nM
- Ki [44]: 5.1 nM
- Activity [45]: Non-toxic
- Activity [46]: Non-toxic
- IC50 (MDA-MB-231 [47]): 144 nM
- IC50 (SK-OV-3): 142 nM
- Cmax (in vivo [48]): 3600 ng/mL
- Cmax (in vivo [49]): 260 ng/mL
- Cmax (in vivo [50]): 2400 ng/mL
- Cmax (in vivo [51]): 10800 ng/mL
- Activity (Mus musculus [52]): Non-toxic
